Results as given in US7585895B2, “Therapeutic substituted cyclopentanes” (Allergan, Inc., priority 2005, dated 2009).

Experiments:
EP2 [1] = target: T1, EP2 (Homo sapiens, UniProt P43116); assay: cAMP assay, HEK-EBNA cells expressing EP2; type: cell-based; set-up: expressed in transfected cells; host or cells: HEK-EBNA; conditions: value in parentheses in EP2 column, read-out: EP2 EC50 (nM), measurement of cAMP (data in parentheses)
Procedure: A 384-well drug plate was prepared to contain 6 test compounds, PGE2 and cAMP in 16 serial dilutions in triplicate, using a Biomek station. HEK-EBNA cells expressing a target PG receptor subtype (EP2 or EP4) were suspended in a stimulation buffer (HBSS, 0.1% BSA, 0.5 mM IBMX and 5 mM HEPES, pH 7.4) in a density of 10^4 cells/5 μl. The reaction was initiated by mixing 5 μL drug dilutions with 5 μl of HEK-EBNA cells in a well, carried out for 30 min at room temperature, and followed by the addition of 5 μl anti-cAMP acceptor beads in the control buffer with Tween-20 (25 mM NaCl, 0.03% Tween-20, 5 mM HEPES, pH7.4). After 30 min in the dark at room temperature, the mixtures were incubated with 15 μl biotinylated-cAMP/strepavidin donor beads in Lysis/Detection buffer (0.1% BSA, 0.3% Tween-20 and 5 mM HEPES, pH7.4) for 45 min at the room temperature. Fluorescence changes were read using a Fusion-alpha HT microplate reader.

EP2 [2] = target: T1, EP2; assay: Competition binding, [3H]PGE2, EP2 (Ki); set-up: expressed in transfected cells; membranes or whole cells; conditions: HEK 293 cells stably expressing human EP2, [3H]PGE2
Procedure: Competition binding experiments were performed in a medium containing Hank's balanced salt solution, Hepes 20 mM, pH 7.3, membranes (˜60 μg protein) or 2×10^5 cells from HEK 293 cells stably expressing human EP2 receptors, [^3H]PGE2 (10 nM) and various concentrations of test compounds in a total volume of 300 μl. Reaction mixtures were incubated at 23° C. for 60 min, and were filtered over Whatman GF/B filters under vacuum. Filters were washed three times with 5 ml ice-cold buffer containing 50 mM Tris/HCl (pH 7.3). Non-specific binding was estimated in the presence of excess unlabeled PGE2 (10 μM). Binding data fitted to the binding model for a single class of binding sites, using nonlinear regression analysis. IC50 values thus obtained were converted to Ki using the equation of Ki=(IC50/(1+[L]/KD) where [L] represents PGE2 concentration (10 nM) and KD the dissociation constant for [^3H]PGE2 at human EP2 receptors (40 nM).
(§1) HEK-293 cells stably expressing the human or feline FP receptor, or EP1, EP2, or EP4 receptors were washed with TME buffer, scraped from the bottom of the flasks, and homogenized for 30 sec using a Brinkman PT 10/35 polytron. TME buffer was added to achieve a final 40 ml volume in the centrifuge tubes (the composition of TME is 100 mM TRIS base, 20 mM MgCl2, […]; 10N HCl is added to achieve a pH of 7.4).
(§2) The cell homogenate was centrifuged at 19000 r.p.m. for 20 min at 4° C using a Beckman Ti-60 rotor. The resultant pellet was resuspended in TME buffer to give a final 1 mg/ml protein concentration, as determined by Biorad assay. Radioligand binding competition assays vs. [^3H-]17-phenyl PGF2α. (5 nM) were performed in a 100 μl volume for 60 min. Binding reactions were started by adding plasma membrane fraction. The reaction was terminated by the addition of 4 ml ice-cold TRIS-HCl buffer and rapid filtration through glass fiber GF/B filters using a Brandel cell harvester. The filters were washed 3 times with ice-cold buffer and oven dried for one hour.
(§3) [^3H-] PGE2 (specific activity 180 Ci mmol) was used as the radioligand for EP receptors. [^3H] 17-phenyl PGF2α, was employed for FP receptor binding studies. Binding studies employing EP1, EP2, EP4 and FP receptors were performed in duplicate in at least three separate experiments. A 200 μl assay volume was used. Incubations were for 60 min at 25° C. and were terminated by the addition of 4 ml of ice-cold 50 mM TRIS-HCl, followed by rapid filtration through Whatman GF/B filters and three additional 4 ml washes in a cell harvester (Brandel). Competition studies were performed using a final concentration of 5 nM [^3H]-PGE2, or 5 nM [^3H] 17-phenyl PGF2αand non-specific binding determined with 10^−5M of unlabeled PGE2, or 17-phenyl PGF2α, according to receptor subtype studied.

hEP2/Gqs5 = target: T2, hEP2/Gqs5 (Homo sapiens, UniProt P43116); assay: FLIPR calcium signal, EP2; type: cell-based; conditions: HEK-293(EBNA), value outside parentheses, read-out: Ca2+ Signal-EC50 (nM) EP2
T2 construct: expressed in transfected cells
T2 sequence (P43116 whole entry): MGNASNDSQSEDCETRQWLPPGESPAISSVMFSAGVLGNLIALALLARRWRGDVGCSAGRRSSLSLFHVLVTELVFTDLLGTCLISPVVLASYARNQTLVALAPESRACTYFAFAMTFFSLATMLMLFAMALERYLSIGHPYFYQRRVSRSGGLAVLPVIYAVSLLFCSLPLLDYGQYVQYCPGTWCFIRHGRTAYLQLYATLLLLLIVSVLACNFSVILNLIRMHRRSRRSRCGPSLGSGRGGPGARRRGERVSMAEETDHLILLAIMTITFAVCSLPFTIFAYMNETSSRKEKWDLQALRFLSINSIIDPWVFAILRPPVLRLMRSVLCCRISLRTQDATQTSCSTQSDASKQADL
Procedure: (§4) HEK-293(EBNA) cells, stably expressing one type or subtype of recombinant human prostaglandin receptors (prostaglandin receptors expressed: hDP/Gqs5; hEP1; hEP2/Gqs5; hEP3A/Gqi5; hEP4/Gqs5; hFP; hIP; hTP), were cultured in 100 mm culture dishes in high-glucose DMEM medium containing 10% fetal bovine serum, 2 mM 1-glutamine, 250 μg/ml geneticin (G418) and 200 μg/ml hygromycin B as selection markers, and 100 units/ml penicillin G, 100 μg/ml streptomycin and 0.25 μg/ml amphotericin B.
(§5) Cells were seeded at a density of 5×10^4 cells per well in Biocoat® Poly-D-lysine-coated black-wall, clear-bottom 96-well plates (Becton-Dickinson) and allowed to attach overnight in an incubator at 37° C. Cells were then washed two times with HBSS-HEPES buffer (Hanks Balanced Salt Solution without bicarbonate and phenol red, 20 mM HEPES, pH 7.4) using a Denley Cellwash plate washer (Labsystems). After 45 minutes of dye-loading in the dark, using the calcium-sensitive dye Fluo-4 AM at a final concentration of 2 μM, plates were washed four times with HBSS-HEPES buffer to remove excess dye leaving 100 μl in each well. Plates were re-equilibrated to 37° C. for a few minutes.
(§6) Cells were excited with an Argon laser at 488 nm, and emission was measured through a 510-570 nm bandwidth emission filter (FLIPR™, Molecular Devices, Sunnyvale, Calif.). Drug solution was added in a 50 μl volume to each well to give the desired final concentration. The peak increase in fluorescence intensity was recorded for each well. On each plate, four wells each served as negative (HBSS-HEPES buffer) and positive controls (standard agonists: BW245C (hDP); PGE2 (HEP1; hEP2/Gqs5; hEP3A/Gqi5; hEP4/Gqs5); PGF2α (hFP); carbacyclin (hIP); U-46619 (hTP), depending on receptor). The peak fluorescence change in each drug-containing well was then expressed relative to the controls.
(§7) Compounds were tested in a high-throughput (HTS) or concentration-response (CoRe) format. In the HTS format, forty-four compounds per plate were examined in duplicates at a concentration of 10^−5 M. To generate concentration-response curves, four compounds per plate were tested in duplicates in a concentration range between 10^−5 and 10^−11 M. The duplicate values were averaged. In either, HTS or CoRe format each compound was tested on at least 3 separate plates using cells from different passages to give an n≧3.

hEP4/Gqs5 = target: T3, hEP4/Gqs5 (Homo sapiens, UniProt P35408); assay: FLIPR calcium signal, EP4; type: cell-based; conditions: HEK-293(EBNA), read-out: Ca2+ Signal-EC50 (nM) EP4
T3 construct: expressed in transfected cells
T3 sequence (P35408 whole entry): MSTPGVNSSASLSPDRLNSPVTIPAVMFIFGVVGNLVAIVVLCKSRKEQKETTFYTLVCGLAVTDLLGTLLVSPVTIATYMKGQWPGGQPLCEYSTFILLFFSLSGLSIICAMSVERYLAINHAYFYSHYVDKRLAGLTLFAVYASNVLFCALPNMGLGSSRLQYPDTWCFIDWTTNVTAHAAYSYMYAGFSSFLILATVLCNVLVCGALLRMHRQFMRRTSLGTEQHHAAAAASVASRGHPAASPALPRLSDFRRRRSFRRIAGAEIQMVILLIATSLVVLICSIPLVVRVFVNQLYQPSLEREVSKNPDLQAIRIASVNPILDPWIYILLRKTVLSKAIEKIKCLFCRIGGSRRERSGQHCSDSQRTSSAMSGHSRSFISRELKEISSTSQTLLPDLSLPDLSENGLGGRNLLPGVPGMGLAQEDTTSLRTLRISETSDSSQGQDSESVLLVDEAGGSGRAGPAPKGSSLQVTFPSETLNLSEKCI
Procedure: as §4, §5, §6, §7

EP4 receptors = target: T4, EP4 receptors (Homo sapiens, UniProt P35408); assay: Radioligand binding, [3H]PGE2, EP4 (Ki); conditions: HEK-293 cells stably expressing EP4, [3H]PGE2
T4 construct: expressed in transfected cells; membrane pellet
T4 sequence (P35408 whole entry): as above
Procedure: as §1, §2, §3

Dog ocular hyperemia = type: in vivo; conditions: Conc. 0.1 g/100 mL
[3] = Dog intraocular pressure (Max. ΔIOP); type: in vivo; conditions: Canis lupus familiaris, Conc. 0.1 g/100 mL
[4] = Monkey intraocular pressure (Max. ΔIOP); type: in vivo; conditions: Primates, Conc. 0.1 g/100 mL

T1 sequence (P43116 whole entry): as the sequence (P43116 whole entry) above

SMILES: CC(C)(C)CCCC(O)c1ccc([C@@H]2[C@@H](C/C=C\CCCC(=O)O)[C@H](Cl)C[C@H]2O)cc1 (stereo partly drawn) [Entry 19, (Z)-7-{(1R,2S,3R,5R)-5-Chloro-3-hydroxy-2-[4-(1-hydroxy-5,5-dimethyl-hexyl)-phenyl]-cyclopentyl}-hept-5-enoic acid]
- EC50 (EP2 [1]): 815 nM
- Ki (EP2 [2]): 1050 nM
- EC50 (hEP2/Gqs5): > 10000 nM
- EC50 (hEP4/Gqs5): > 10000 nM
- Ki (EP4 receptors): 6290 nM

SMILES: CCCCCCc1ccc([C@@H]2[C@@H](C/C=C\CCCC(=O)OC(C)C)[C@H](Cl)C[C@H]2O)cc1 [compound 7]
- DOG Max. hpyeremia (Dog ocular hyperemia): 0.5
- change in vivo at 1000 µg/mL [3]: 20%
- change in vivo at 1000 µg/mL [4]: 21%
